Reference: patent publication US20250333371A1, “COMPOUNDS” (PSYLO PTY LTD, priority 2022, published 2025)
Read-outs that look alike come from different tables or passages of the source.

Columns and labels:
Assay type in all cases: cell-based
5-HT2A = target: T1, 5-HT2A (Homo sapiens, UniProt P28223); test: FLIPR Ca2+ flux functional assay, 5-HT2A receptor (stably transfected HEK293); details: for Emax at 10 µM: no EC50 value given, read-out: 5-HT2A Emax (%) printed as % @ 10 uM
T1 construct: host or cells: HEK293
T1 sequence (P28223 whole entry): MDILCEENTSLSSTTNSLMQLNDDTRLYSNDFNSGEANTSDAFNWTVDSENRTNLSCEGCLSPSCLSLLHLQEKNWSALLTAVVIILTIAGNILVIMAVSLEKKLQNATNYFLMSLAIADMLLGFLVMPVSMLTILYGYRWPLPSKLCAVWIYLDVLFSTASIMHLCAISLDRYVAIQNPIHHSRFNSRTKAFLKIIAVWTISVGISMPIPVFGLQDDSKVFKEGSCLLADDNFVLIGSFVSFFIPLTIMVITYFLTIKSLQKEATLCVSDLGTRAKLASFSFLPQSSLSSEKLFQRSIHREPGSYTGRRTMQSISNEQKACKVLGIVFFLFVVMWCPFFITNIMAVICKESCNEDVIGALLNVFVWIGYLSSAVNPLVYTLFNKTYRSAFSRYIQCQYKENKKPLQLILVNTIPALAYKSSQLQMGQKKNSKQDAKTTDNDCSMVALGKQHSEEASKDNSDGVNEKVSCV
Description: (§1) Activity at 5-HT2A, 5-HT2B and 5-HT2C receptors was determined using a FLIPR Ca^2+ flux assay at WuXi AppTec Co. Ltd. (Hong Kong) Discovery Biology Unit according to their standard protocols. Briefly, stably transfected cells expressing the receptor of interest (HEK293 for 5-HT2A and 5-HT2C; CHO-K1 for 5-HT2B) were grown and plated in a 384 well plate and incubated at 37° C. and 5% CO2 overnight. A 250 mM stock solution of probenecid in FLIPR calcium assay buffer (10 mL) was freshly prepared and combined with a fluorescent dye (Fluo-4 Direct) to give a final assay concentration of 2.5 mM. Reference compounds were 4-fold serially diluted and the screening compounds were 3-fold serially diluted in 100% DMSO for 10 points using Agilent Bravo, and 750 nL was added to a 384 well compound plate using Echo along with 30 μL assay buffer. The fluorescent dye was then added to the assay plate along with assay buffer to a final volume of 40 μL. The cell plate was incubated for 50 min at 37° C. and 5% CO2 and placed into the FLIPR Tetra along with the compound plate. 10 μL of references and compounds were then transferred from the compound plate into the cell plate and the fluorescent signal was read.

5-HT2B = target: T2, 5-HT2B (Homo sapiens, UniProt P41595); test: FLIPR Ca2+ flux functional assay, 5-HT2B receptor (stably transfected CHO-K1)
T2 construct: host or cells: CHO-K1
T2 sequence (P41595 whole entry): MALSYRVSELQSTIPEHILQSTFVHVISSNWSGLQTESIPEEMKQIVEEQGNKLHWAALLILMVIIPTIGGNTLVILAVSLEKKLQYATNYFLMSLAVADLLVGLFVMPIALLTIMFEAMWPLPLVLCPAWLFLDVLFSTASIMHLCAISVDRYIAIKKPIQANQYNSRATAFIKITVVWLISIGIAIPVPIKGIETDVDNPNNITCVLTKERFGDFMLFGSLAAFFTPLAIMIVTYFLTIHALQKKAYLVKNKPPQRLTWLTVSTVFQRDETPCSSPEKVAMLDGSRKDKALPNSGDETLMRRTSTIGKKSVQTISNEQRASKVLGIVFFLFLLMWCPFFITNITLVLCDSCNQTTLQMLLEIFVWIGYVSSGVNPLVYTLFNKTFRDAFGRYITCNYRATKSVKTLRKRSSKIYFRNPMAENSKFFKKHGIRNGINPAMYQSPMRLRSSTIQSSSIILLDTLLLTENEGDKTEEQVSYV
Description: as §1

5-HT2C = target: T3, 5-HT2C (Homo sapiens, UniProt P28335); test: FLIPR Ca2+ flux functional assay, 5-HT2C receptor (stably transfected HEK293)
T3 construct: host or cells: HEK293
T3 sequence (P28335 33-458): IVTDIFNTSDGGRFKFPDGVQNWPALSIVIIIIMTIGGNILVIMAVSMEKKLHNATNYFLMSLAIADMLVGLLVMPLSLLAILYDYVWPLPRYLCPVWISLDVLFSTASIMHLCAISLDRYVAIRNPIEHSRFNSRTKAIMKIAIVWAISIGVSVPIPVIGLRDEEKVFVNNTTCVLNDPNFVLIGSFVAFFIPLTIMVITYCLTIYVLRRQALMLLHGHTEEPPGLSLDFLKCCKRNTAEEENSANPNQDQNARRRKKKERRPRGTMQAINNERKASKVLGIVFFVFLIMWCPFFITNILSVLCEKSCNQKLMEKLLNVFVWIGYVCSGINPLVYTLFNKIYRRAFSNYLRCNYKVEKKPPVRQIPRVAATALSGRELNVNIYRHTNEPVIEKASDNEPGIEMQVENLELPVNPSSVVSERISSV
Description: as §1

[1] = agonist activity, Ca2+ flux, HEK293
[2] = agonist activity, Ca2+ flux, CHO-K1
[3] = agonist activity, Ca2+ flux, HEK293, read-out: 5-HT2A EC50
[4] = agonist activity, Ca2+ flux, CHO-K1, read-out: 5-HT2B EC50
[5] = agonist activity, Ca2+ flux, HEK293, read-out: 5-HT2C EC50

COc1cccc2cccc(CCN(C)C(C)C)c12 [Example I-28, N-(2-(8-methoxynaphthalen-1-yl)ethyl)-N-methylpropan-2-amine]
EC50 (5-HT2A): 0.191 µM | Emax (5-HT2A; [1]): 94% | EC50 (5-HT2B): > 10 µM | Emax (5-HT2B; [2]): 46% | EC50 (5-HT2C): 0.766 µM | Emax (5-HT2C; [1]): 76%

CC(C)N(C)CCc1cccc2ccc(F)cc12 [Example I-40, N-(2-(7-fluoronaphthalen-1-yl)ethyl)-N-methylpropan-2-amine]
EC50 (5-HT2A): 0.378 µM | Emax (5-HT2A; [1]): 68% | EC50 (5-HT2C): 0.12 µM | Emax (5-HT2C; [1]): 84%

CCCN(CCC)CCc1cccc2ccc(OC)cc12 [Example I-3, N-(2-(7-methoxynaphthalen-1-yl)ethyl)-N-propylpropan-1-amine]
Emax (5-HT2A; [1]): 77% | EC50 (5-HT2A; [3]): 0.234 µM | Emax (5-HT2B; [2]): 72% | EC50 (5-HT2B; [4]): 0.225 µM | Emax (5-HT2C; [1]): 97% | EC50 (5-HT2C; [5]): 0.944 µM

NCCc1cccc2ccc(F)cc12 [Example I-53, 2-(7-fluoronaphthalen-1-yl)ethan-1-amine]
EC50 (5-HT2A): 0.034 µM | Emax (5-HT2A; [1]): 83% | EC50 (5-HT2C): 0.001 µM | Emax (5-HT2C; [1]): 97%

CN(C)CCc1cccc2ccc(F)cc12 [Example I-38, 2-(7-fluoronaphthalen-1-yl)-N,N-dimethylethan-1-amine]
EC50 (5-HT2A): 0.245 µM | Emax (5-HT2A; [1]): 66% | EC50 (5-HT2C): 0.046 µM | Emax (5-HT2C; [1]): 83%

CN(CCc1cccc2cccc(O)c12)C1CC1 [Example I-31, 8-(2-(cyclopropyl(methyl)amino)ethyl)naphthalen-1-ol]
Emax (5-HT2A; [1]): 64% | EC50 (5-HT2A; [3]): 0.06 µM | Emax (5-HT2C; [1]): 57% | EC50 (5-HT2C; [5]): 0.123 µM

CCCN(C)CCc1cccc2cccc(OC)c12 [Example I-27, N-(2-(8-methoxynaphthalen-1-yl)ethyl)-N-methylpropan-1-amine]
EC50 (5-HT2A): 0.213 µM | Emax (5-HT2A; [1]): 86% | EC50 (5-HT2B): > 10 µM | Emax (5-HT2B; [2]): 2% | EC50 (5-HT2C): 0.211 µM | Emax (5-HT2C; [1]): 75%

COc1cccc2c(CCN)cccc12 [Example I-52, 2-(5-methoxynaphthalen-1-yl)ethan-1-amine]
EC50 (5-HT2A): 0.295 µM | Emax (5-HT2A; [1]): 79% | EC50 (5-HT2C): 0.289 µM | Emax (5-HT2C; [1]): 91%

CCN(CC)CCc1cccc2cccc(OC)c12 [Example I-22, N,N-diethyl-2-(8-methoxynaphthalen-1-yl)ethan-1-amine]
EC50 (5-HT2A): 0.457 µM | Emax (5-HT2A; [1]): 85% | EC50 (5-HT2B): > 10 µM | Emax (5-HT2B; [2]): 34% | EC50 (5-HT2C): 0.157 µM | Emax (5-HT2C; [1]): 95%

COc1ccc2cccc(CCN(C)C)c2n1 [Example I-8, 2-(2-methoxyquinolin-8-yl)-N,N-dimethylethan-1-amine]
Emax at 10 µM (5-HT2A; HEK293): 24% | Emax (5-HT2B; [2]): 8% | EC50 (5-HT2B; [4]): > 10 µM | Emax (5-HT2C; [1]): 87% | EC50 (5-HT2C; [5]): 0.314 µM

COc1cccc(CNCCc2cccc3ccc(OC)cc23)c1 [Example I-17, N-(3-methoxybenzyl)-2-(7-methoxynaphthalen-1-yl)ethan-1-amine]
Emax (5-HT2A; [1]): 84% | EC50 (5-HT2A; [3]): 0.092 µM | Emax (5-HT2C; [1]): 97% | EC50 (5-HT2C; [5]): 0.018 µM

CN(C)CCc1cccc2ccc(Cl)cc12 [Example I-32, 2-(7-chloronaphthalen-1-yl)-N,N-dimethylethan-1-amine]
EC50 (5-HT2A): 0.24 µM | Emax (5-HT2A; [1]): 63% | EC50 (5-HT2C): 0.061 µM | Emax (5-HT2C; [1]): 87%

COc1cccc2cccc(CCN(C)C3CC3)c12 [Example I-30, N-(2-(8-methoxynaphthalen-1-yl)ethyl)-N-methylcyclopropanamine]
Emax (5-HT2A; [1]): 48% | EC50 (5-HT2A; [3]): 0.496 µM | Emax (5-HT2C; [1]): 60% | EC50 (5-HT2C; [5]): 0.409 µM

CCN(C)CCc1cccc2cccc(O)c12 [Example I-26, 8-(2-(methyl(ethyl)amino)ethyl)naphthalen-1-ol]
Emax (5-HT2A; [1]): 68% | EC50 (5-HT2A; [3]): 0.041 µM | EC50 (5-HT2C): 0.015 µM | Emax (5-HT2C; [1]): 86%

COc1cnc2cccc(CCN(C)C)c2c1 [Example I-9, 2-(3-methoxyquinolin-5-yl)-N,N-dimethylethan-1-amine]
Emax (5-HT2A; [1]): 39% | EC50 (5-HT2A; [3]): 1.84 µM | Emax (5-HT2B; [2]): 1% | EC50 (5-HT2B; [4]): > 10 µM | Emax (5-HT2C; [1]): 65% | EC50 (5-HT2C; [5]): 2.39 µM

CN(CCc1cccc2ccc(F)cc12)C1CC1 [Example I-41, N-(2-(7-fluoronaphthalen-1-yl)ethyl)-N-methylcyclopropanamine]
Emax (5-HT2A; [1]): 33% | EC50 (5-HT2A; [3]): 1.02 µM | Emax (5-HT2C; [1]): 80% | EC50 (5-HT2C; [5]): 0.15 µM

COc1cccc2cccc(CCN(C(C)C)C(C)C)c12 [Example I-24, N-isopropyl-N-(2-(8-methoxynaphthalen-1-yl)ethyl)propan-2-amine]
Emax (5-HT2A; [1]): 98% | EC50 (5-HT2A; [3]): 1.47 µM | Emax (5-HT2B; [2]): 116% | EC50 (5-HT2B; [4]): 4.7 µM | Emax (5-HT2C; [1]): 90% | EC50 (5-HT2C; [5]): 2.56 µM

CCN(C)CCc1cccc2ccc(OC)cc12 [Example I-5, N-ethyl-2-(7-methoxynaphthalen-1-yl)-N-methylethan-1-amine]
Emax (5-HT2A; [1]): 63% | EC50 (5-HT2A; [3]): 0.086 µM | EC50 (5-HT2B): > 10 µM | Emax (5-HT2B; [2]): 17% | EC50 (5-HT2C): 0.043 µM | Emax (5-HT2C; [1]): 94%

CC(C)N(C)CCc1cccc2cccc(O)c12 [Example I-29, 8-(2-(methyl(isopropyl)amino)ethyl)naphthalen-1-ol]
Emax (5-HT2A; [1]): 79% | EC50 (5-HT2A; [3]): 0.036 µM | EC50 (5-HT2C): 0.054 µM | Emax (5-HT2C; [1]): 84%

CCCN(CCC)CCc1cccc2cccc(OC)c12 [Example I-23, N-(2-(8-methoxynaphthalen-1-yl)ethyl)-N-propylpropan-1-amine]
Emax (5-HT2A; [1]): 93% | EC50 (5-HT2A; [3]): 0.165 µM | Emax (5-HT2B; [2]): 89% | EC50 (5-HT2B; [4]): 0.103 µM | Emax (5-HT2C; [1]): 88% | EC50 (5-HT2C; [5]): 0.291 µM

CCCN(C)CCc1cccc2ccc(OC)cc12 [Example I-6, N-(2-(7-methoxynaphthalen-1-yl)ethyl)-N-methylpropan-1-amine]
EC50 (5-HT2A): 0.125 µM | Emax (5-HT2A; [1]): 81% | EC50 (5-HT2B): > 10 µM | Emax (5-HT2B; [2]): 24% | EC50 (5-HT2C): 0.079 µM | Emax (5-HT2C; [1]): 95%

COc1cccc2cccc(CCN(C)C)c12 [Example I-13, 2-(8-methoxynaphthalen-1-yl)-N,N-dimethylethan-1-amine]
EC50 (5-HT2A): 0.138 µM | Emax (5-HT2A; [1]): 49% | EC50 (5-HT2B): > 10 µM | Emax (5-HT2B; [2]): 5% | EC50 (5-HT2C): 0.582 µM | Emax (5-HT2C; [1]): 58%

CCN(CC)CCc1cccc2ccc(OC)cc12 [Example I-2, N,N-diethyl-2-(7-methoxynaphthalen-1-yl)ethan-1-amine]
EC50 (5-HT2A): 0.36 µM | Emax (5-HT2A; [1]): 70% | EC50 (5-HT2B): > 10 µM | Emax (5-HT2B; [2]): 12% | EC50 (5-HT2C): 0.733 µM | Emax (5-HT2C; [1]): 88%

CCN(C)CCc1cccc2cccc(OC)c12 [Example I-25, N-ethyl-2-(8-methoxynaphthalen-1-yl)-N-methylethan-1-amine]
EC50 (5-HT2A): 0.158 µM | Emax (5-HT2A; [1]): 67% | EC50 (5-HT2B): > 10 µM | Emax (5-HT2B; [2]): 24% | EC50 (5-HT2C): 0.201 µM | Emax (5-HT2C; [1]): 84%

CN(C)CCc1cccc2cccc(O)c12 [Example I-21, 8-(2-(dimethylamino)ethyl)naphthalen-1-ol]
Emax (5-HT2A; [1]): 73% | EC50 (5-HT2A; [3]): 0.053 µM | EC50 (5-HT2C): 0.012 µM | Emax (5-HT2C; [1]): 90%

CCN(C)CCc1cccc2ccccc12 [Example I-33, N-ethyl-N-methyl-2-(naphthalen-1-yl)ethan-1-amine]
EC50 (5-HT2A): 0.204 µM | Emax (5-HT2A; [1]): 58% | EC50 (5-HT2C): 0.115 µM | Emax (5-HT2C; [1]): 67%

COc1ccc2cccc(CCN(C)C)c2c1 [Example I-1, 2-(7-methoxynaphthalen-1-yl)-N,N-dimethylethan-1-amine]
Emax (5-HT2A; [1]): 79% | EC50 (5-HT2A; [3]): 0.096 µM | EC50 (5-HT2B): > 10 µM | Emax (5-HT2B; [2]): -0.99% | EC50 (5-HT2C): 0.033 µM | Emax (5-HT2C; [1]): 82%

CCN(C)CCc1cccc2ccc(F)cc12 [Example I-39, N-ethyl-2-(7-fluoronaphthalen-1-yl)-N-methylethan-1-amine]
EC50 (5-HT2A): 0.168 µM | Emax (5-HT2A; [1]): 58% | EC50 (5-HT2C): 0.033 µM | Emax (5-HT2C; [1]): 93%

COc1ccc2cccc(CCN(C(C)C)C(C)C)c2c1 [Example I-4, N-isopropyl-N-(2-(7-methoxynaphthalen-1-yl)ethyl)propan-2-amine]
Emax (5-HT2A; [1]): 111% | EC50 (5-HT2A; [3]): 0.446 µM | Emax (5-HT2B; [2]): 123% | EC50 (5-HT2B; [4]): 1.2 µM | Emax (5-HT2C; [1]): 99% | EC50 (5-HT2C; [5]): 1.26 µM

COc1cccc2c(CCN(C)C)cccc12 [Example I-50, 2-(5-methoxynaphthalen-1-yl)-N,N-dimethylethan-1-amine]
Emax at 10 µM (5-HT2A; HEK293): 28%
